In the supplement of paper PMC6045584:
± gives the standard deviation of the averaged measurements.

Key:
[1] = compound: CNCc1ccc(-c2[nH]c3cc(F)cc4c3c2CCNC4=O)cc1; assay: surviving fraction relative to DMSO-only wells; higher = less growth inhibition; settings: exposure time: 5 days
Method in brief: (§1)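 Inhibitors at 0.5, 1, 5, 10, 50, 100, 500 and 1000 nM were applied continuously for five days to tumour cell lines seeded in log phase at 250–500 cells per well in 384-well plates 24 hours earlier. Viability was measured by CellTiter-Glo luminescence and expressed as surviving fraction relative to the median of DMSO-only wells. Luminescence was taken after 10 minutes at room temperature.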

MLN-4924 = compound: NS(=O)(=O)OC[C@@H]1C[C@@H](n2ccc3c(N[C@H]4CCc5ccccc54)ncnc32)C[C@@H]1O [MLN-4924]; assay: as above; settings: exposure time: 5 days
Method in brief: as §1

Row | Test System | surviving fraction ([1]; 0.5 nM) | surviving fraction ([1]; 1 nM) | surviving fraction ([1]; 5 nM) | surviving fraction ([1]; 10 nM) | surviving fraction ([1]; 50 nM) | surviving fraction ([1]; 100 nM) | surviving fraction ([1]; 500 nM) | surviving fraction ([1]; 1000 nM) | surviving fraction (MLN-4924; 0.5 nM) | surviving fraction (MLN-4924; 1 nM) | surviving fraction (MLN-4924; 5 nM) | surviving fraction (MLN-4924; 10 nM) | surviving fraction (MLN-4924; 50 nM) | surviving fraction (MLN-4924; 100 nM) | surviving fraction (MLN-4924; 500 nM) | surviving fraction (MLN-4924; 1000 nM)
1 | CCK81 LARGE INTESTINE | 0.829 ± 0.06 | 0.766 ± 0.13 | 0.861 ± 0.24 | 0.719 ± 0.12 | 0.789 ± 0.041 | 0.803 ± 0.058 | 0.914 ± 0.053 | 0.783 ± 0.023 | 0.87 ± 0.11 | 0.814 ± 0.12 | 0.704 ± 0.15 | 0.794 ± 0.088 | 0.867 ± 0.07 | 0.831 ± 0.059 | 0.567 ± 0.066 | 0.473 ± 0.065
2 | G292 BONE | 0.998 ± 0.075 | 0.981 ± 0.037 | 1.05 ± 0.053 | 0.975 ± 0.012 | 0.9877 ± 0.0081 | 0.932 ± 0.021 | 0.8 ± 0.044 | 0.775 ± 0.035 | 1.02 ± 0.031 | 1 ± 0.048 | 1.04 ± 0.017 | 1.03 ± 0.054 | 0.909 ± 0.049 | 0.623 ± 0.068 | 0.295 ± 0.011 | 0.266 ± 0.019
3 | HCC38 BREAST | 0.703 ± 0.16 | 0.805 ± 0.24 | 0.971 ± 0.31 | 0.705 ± 0.14 | 0.528 ± 0.1 | 0.607 ± 0.047 | 0.492 ± 0.22 | 0.45 ± 0.035 | 1.35 ± 0.069 | 1.48 ± 0.14 | 1.02 ± 0.14 | 1.22 ± 0.18 | 0.624 ± 0.064 | 0.269 ± 0.025 | 0.0757 ± 0.0075 | 0.0803 ± 0.013
4 | HCC70 BREAST | 1.07 ± 0.061 | 1.12 ± 0.037 | 1.16 ± 0.098 | 1.1 ± 0.11 | 1.12 ± 0.12 | 1.11 ± 0.017 | 1.12 ± 0.11 | 1.12 ± 0.052 | 1.06 ± 0.14 | 1.09 ± 0.06 | 1.07 ± 0.066 | 0.96 ± 0.071 | 0.582 ± 0.041 | 0.41 ± 0.029 | 0.14 ± 0.037 | 0.103 ± 0.014
5 | HMLE3 BREAST | 1.13 ± 0.039 | 1 ± 0.042 | 1.11 ± 0.051 | 1.07 ± 0.051 | 0.986 ± 0.17 | 1.03 ± 0.082 | 0.856 ± 0.14 | 0.879 ± 0.056 | 1.04 ± 0.046 | 1.08 ± 0.031 | 1.07 ± 0.016 | 1.25 ± 0.019 | 1.07 ± 0.016 | 0.698 ± 0.024 | 0.175 ± 0.017 | 0.114 ± 0.025
6 | HMT3552 BREAST | 0.99 ± 0.063 | 0.968 ± 0.043 | 0.95 ± 0.031 | 1 ± 0.0095 | 0.817 ± 0.037 | 0.84 ± 0.022 | 0.78 ± 0.042 | 0.723 ± 0.079 | 1.04 ± 0.012 | 1.11 ± 0.054 | 1.11 ± 0.062 | 1.11 ± 0.032 | 0.458 ± 0.03 | 0.295 ± 0.021 | 0.154 ± 0.008 | 0.108 ± 0.0046
7 | HS57T BREAST | 0.972 ± 0.021 | 0.994 ± 0.063 | 1.03 ± 0.09 | 0.979 ± 0.055 | 0.929 ± 0.077 | 0.971 ± 0.06 | 0.881 ± 0.03 | 0.865 ± 0.038 | 0.977 ± 0.059 | 0.977 ± 0.069 | 1.02 ± 0.064 | 1.01 ± 0.07 | 0.783 ± 0.093 | 0.523 ± 0.021 | 0.139 ± 0.015 | 0.106 ± 0.0065
8 | HS578T BREAST | 0.959 ± 0.13 | 0.875 ± 0.042 | 0.912 ± 0.11 | 0.927 ± 0.17 | 0.892 ± 0.062 | 0.937 ± 0.067 | 0.763 ± 0.059 | 0.801 ± 0.13 | 0.822 ± 0.14 | 0.96 ± 0.14 | 0.898 ± 0.05 | 0.957 ± 0.11 | 0.63 ± 0.021 | 0.494 ± 0.037 | 0.342 ± 0.04 | 0.326 ± 0.057
